Legend:
Assay in all cases: relative viability (nuclei count vs DMSO), 5 days (fraction); higher = more cells survive
Linifanib + OSI-027 = compound: Cc1ccc(F)c(NC(=O)Nc2ccc(-c3cccc4[nH]nc(N)c34)cc2)c1 [Linifanib] + COc1cccc2cc(-c3nc([C@H]4CC[C@H](C(=O)O)CC4)n4ncnc(N)c34)[nH]c12 [OSI-027] (partner 0.5 µM)
Method in brief: (§1)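 Nuclei were stained with Hoechst during a one-step fixation (final 0.05% Triton X-100, 1% formaldehyde, 1 ug/ml Hoechst) carried out 5 days after dosing, then counted on 4× images. The cells, lung cancer lines in 1536-well plates, had been dosed by pin tool the day after seeding with one drug alone or a fixed anchor-drug dose plus five library-drug doses (not always all listed) in √10 steps. Relative viability is the nuclei count in treated wells divided by that in vehicle wells, and each value is the median of duplicate plates.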

Linifanib + Lapatinib = compound: Cc1ccc(F)c(NC(=O)Nc2ccc(-c3cccc4[nH]nc(N)c34)cc2)c1 [Linifanib] + CS(=O)(=O)CCNCc1ccc(-c2ccc3ncnc(Nc4ccc(OCc5cccc(F)c5)c(Cl)c4)c3c2)o1 [Lapatinib] (partner 2 µM)
Method in brief: as §1

Linifanib + Pemetrexed = compound: Cc1ccc(F)c(NC(=O)Nc2ccc(-c3cccc4[nH]nc(N)c34)cc2)c1 [Linifanib] + Nc1nc2[nH]cc(CCc3ccc(C(=O)N[C@@H](CCC(=O)O)C(=O)O)cc3)c2c(=O)[nH]1 [Pemetrexed] (partner 0.2 µM)
Method in brief: as §1

Cell Line	relative viability (Linifanib + OSI-027; first compound 0.03162 µM)	relative viability (Linifanib + OSI-027; first compound 0.1 µM)	relative viability (Linifanib + OSI-027; first compound 0.3162 µM)	relative viability (Linifanib + Lapatinib; first compound 0.03162 µM)	relative viability (Linifanib + Lapatinib; first compound 0.1 µM)	relative viability (Linifanib + Lapatinib; first compound 0.3162 µM)	relative viability (Linifanib + Pemetrexed; first compound 0.03162 µM)	relative viability (Linifanib + Pemetrexed; first compound 0.1 µM)	relative viability (Linifanib + Pemetrexed; first compound 0.3162 µM)
201T	0.671	0.86	0.745	1.07	1.03	1.05	0.317	0.309	0.317
A-427	0.526	0.512	0.423	1.06	1.01	0.955	0.96	0.992	0.945
ABC-1	0.506	0.433	0.381	1.15	1.13	0.93			
BEN	0.28	0.295	0.311	0.6	0.767	0.713	0.716	0.866	0.853
CAL-12T	0.761	0.736	0.73	0.75	0.819	0.534	1.2	1.27	1.18
COR-L23	0.875	0.786	0.722	1.09	0.905	0.921	0.197	0.19	0.195
COR-L 105	0.698	0.874	0.602	0.388	0.381	0.333	1.12	1.02	1.07
ChaGo-K-1	0.584	0.602	0.673				0.255	0.262	0.238
EKVX	0.756	0.707	0.712	0.209	0.24	0.222	0.388	0.413	0.399
EMC-BAC-2	0.439	0.361	0.375	0.901	0.992	0.844	0.456	0.448	0.472
EPLC-272H	0.26	0.327	0.29	0.956	0.913	0.814	0.332	0.358	0.339
H3255	0.58	0.606	0.583	0.246	0.508	0.242	0.555	0.586	0.529
HARA	0.569	0.571	0.498	0.815	0.905	0.73	0.258	0.261	0.306
HCC-15	0.735	0.795	0.7	0.841	0.839	0.853	0.239	0.229	0.232
HCC-44	0.62	0.596	0.478	1.04	1	0.989	0.624	0.552	0.613
HCC-78	0.391	0.396	0.344	1.23	0.976	0.674	0.944	0.926	0.85
HCC-366	0.898	1.29	0.795	1.02	1.12	0.895	0.159	0.15	0.139
HCC-827	0.82	0.93	0.716	0.19	0.173	0.191	0.21	0.265	0.235
HOP-62	0.982	0.874	0.767	1.02	0.739	1.02	0.312	0.261	0.295
LC-2-ad	0.722	0.951	0.855	1.06	1.04	0.883	0.307	0.293	0.269
LCLC-97TM1	0.718	0.624	0.563	1.51	0.984	0.858	0.202	0.16	0.146
LCLC-103H	0.514	0.481	0.408				0.477	0.469	0.458
LK-2	0.212	0.21	0.261	0.931	1.06	0.915	0.278	0.318	0.272
LOU-NH91	0.697	0.796	0.709	0.772	0.828	0.747	0.416	0.372	0.364

Cell Line	relative viability (Linifanib + OSI-027; first compound 0.03162 µM)	relative viability (Linifanib + OSI-027; first compound 0.1 µM)	relative viability (Linifanib + OSI-027; first compound 0.3162 µM)	relative viability (Linifanib + Lapatinib; first compound 0.03162 µM)	relative viability (Linifanib + Lapatinib; first compound 0.1 µM)	relative viability (Linifanib + Lapatinib; first compound 0.3162 µM)	relative viability (Linifanib + Pemetrexed; first compound 0.03162 µM)	relative viability (Linifanib + Pemetrexed; first compound 0.1 µM)	relative viability (Linifanib + Pemetrexed; first compound 0.3162 µM)
LU99A	0.323	0.326	0.338	1.07	1.06	1.05	0.182	0.171	0.202
LXF-289	0.905	0.829	0.774	0.914	0.936	0.831	0.97	0.906	0.853
NCI-H23	0.577	0.75	0.572	0.991	1.14	1.01	0.66	0.882	0.761
NCI-H322M	0.629	0.584	0.503	0.582	0.539	0.537	0.598	0.589	0.65
NCI-H358	0.836	1.06	0.748	0.531	0.543	0.433	0.168	0.166	0.155
NCI-H441	0.588	0.767	0.607				0.274	0.291	0.222
NCI-H460	0.682	0.768	0.611	1.1	1.11	0.697	0.0619	0.0626	0.0566
NCI-H520	0.271	0.313	0.3	1	1.03	0.895	0.629	0.696	0.635
NCI-H596	0.625	0.879	0.71	1.05	1.08	1.01	0.461	0.535	0.555
NCI-H647	0.703	0.795	0.587	1.22	1.29	1.01	0.148	0.153	0.203
NCI-H650	0.493	0.584	0.514	1.16	0.941	0.766	0.899	1.15	0.899
NCI-H661	0.726	0.714	0.647	0.483	0.449	0.42	0.932	0.925	0.904
NCI-H727	0.642	0.635	0.722	0.781	1.05	0.716			
NCI-H838	0.393	0.429	0.397	1.01	1.11	0.933	0.225	0.27	0.244
NCI-H1355	0.418	0.497	0.434	1.04	0.934	1.01	1.07	1.13	1.08
NCI-H1395	0.611	0.756	0.573	0.986	0.982	1.14	0.92	1.02	0.825
NCI-H1437	0.881	0.895	0.908	0.957	0.801	0.77	0.323	0.339	0.286
NCI-H1650	0.752	0.78	0.585	0.797	0.9	0.721	0.364	0.346	0.348
NCI-H1651	0.624	0.8	0.829	0.981	0.88	0.817	0.648	0.612	0.561
NCI-H1666	0.882	0.903	0.784	0.792	0.649	0.705	0.943	0.876	0.892
NCI-H1734	0.597	0.618	0.53	1.04	1.19	1.01	0.401	0.447	0.45
NCI-H1755	0.753	0.827	0.669	1.1	1.09	1.01	0.457	0.465	0.474
NCI-H1792	0.526	0.701	0.663	0.961	0.973	0.891	1.03	1	0.724
NCI-H1793	0.254	0.296	0.267	0.7	0.765	0.765	0.939	1.17	1.07

Cell Line	relative viability (Linifanib + OSI-027; first compound 0.03162 µM)	relative viability (Linifanib + OSI-027; first compound 0.1 µM)	relative viability (Linifanib + OSI-027; first compound 0.3162 µM)	relative viability (Linifanib + Lapatinib; first compound 0.03162 µM)	relative viability (Linifanib + Lapatinib; first compound 0.1 µM)	relative viability (Linifanib + Lapatinib; first compound 0.3162 µM)	relative viability (Linifanib + Pemetrexed; first compound 0.03162 µM)	relative viability (Linifanib + Pemetrexed; first compound 0.1 µM)	relative viability (Linifanib + Pemetrexed; first compound 0.3162 µM)
NCI-H1915	0.668	0.688	0.616	1.08	0.925	0.89	0.588	0.502	0.502
NCI-H1944	0.405	0.462	0.409	0.943	0.881	0.645	0.678	0.705	0.675
NCI-H1975	0.675	0.753	0.706	0.898	1.11	0.874	0.293	0.317	0.278
NCI-H1993	0.495	0.552	0.61	0.796	0.853	0.878	0.642	0.627	0.637
NCI-H2009	0.705	0.673	0.644	1.23	0.928	0.941	1.08	0.989	0.917
NCI-H2023	0.426	0.539	0.37	0.801	1.06	0.733	0.259	0.275	0.232
NCI-H2085	0.842	0.733	0.758	0.809	0.83	0.734	0.907	0.942	0.917
NCI-H2087	0.643	0.585	0.563	1.15	1.2	0.672	0.661	0.726	0.529
NCI-H2126	0.742	0.747	0.665	0.792	0.788	0.779	0.713	0.689	0.714
NCI-H2170	0.655	0.747	0.732	0.255	0.277	0.279	0.265	0.276	0.297
NCI-H2228	0.647	0.747	0.663	0.998	1.3	0.922	0.325	0.355	0.319
NCI-H2342	0.638	0.654	0.624				0.791	0.832	0.769
NCI-H2347	0.476	0.434	0.415	0.955	0.927	0.909	0.434	0.431	0.425
NCI-H2405	0.667	0.66	0.624	1.19	1.05	1.12	1.06	1.11	1.04
NCI-H3122	0.947	0.989	0.995	1.11	1.11	0.922	0.203	0.201	0.193
PC-3 [JPC-3]	0.702	0.771	0.659	0.482	0.413	0.496	1.03	1.05	0.94
PC-14	0.844	1.08	0.762	0.32	0.436	0.305	0.145	0.137	0.129
RERF-LC-KJ	0.572	0.654	0.616	0.885	0.891	0.868	0.502	0.494	0.484
SK-LU-1	0.387	0.472	0.337	0.84	1.12	0.738	0.794	1	0.966
SK-MES-1	0.625	0.613	0.595	0.456	0.534	0.384	1	0.964	0.962
SW 900	0.507	0.808	0.47				0.495	0.496	0.481
SW 1573	0.648	0.665	0.625	1.27	1.27	1.15	0.857	0.879	0.777
UMC-11	0.446	0.465	0.45	1	1.1	1.06	0.763	0.772	0.787
